Source: publication PMC2806602 (The Journal of neuroscience : the official journal of the …, 2009)

Biological target: T1, GluRδ2^Wt C811S (Rattus norvegicus, UniProt Q63226, C811S)
T1 sequence (Q63226 24-1007 C811S): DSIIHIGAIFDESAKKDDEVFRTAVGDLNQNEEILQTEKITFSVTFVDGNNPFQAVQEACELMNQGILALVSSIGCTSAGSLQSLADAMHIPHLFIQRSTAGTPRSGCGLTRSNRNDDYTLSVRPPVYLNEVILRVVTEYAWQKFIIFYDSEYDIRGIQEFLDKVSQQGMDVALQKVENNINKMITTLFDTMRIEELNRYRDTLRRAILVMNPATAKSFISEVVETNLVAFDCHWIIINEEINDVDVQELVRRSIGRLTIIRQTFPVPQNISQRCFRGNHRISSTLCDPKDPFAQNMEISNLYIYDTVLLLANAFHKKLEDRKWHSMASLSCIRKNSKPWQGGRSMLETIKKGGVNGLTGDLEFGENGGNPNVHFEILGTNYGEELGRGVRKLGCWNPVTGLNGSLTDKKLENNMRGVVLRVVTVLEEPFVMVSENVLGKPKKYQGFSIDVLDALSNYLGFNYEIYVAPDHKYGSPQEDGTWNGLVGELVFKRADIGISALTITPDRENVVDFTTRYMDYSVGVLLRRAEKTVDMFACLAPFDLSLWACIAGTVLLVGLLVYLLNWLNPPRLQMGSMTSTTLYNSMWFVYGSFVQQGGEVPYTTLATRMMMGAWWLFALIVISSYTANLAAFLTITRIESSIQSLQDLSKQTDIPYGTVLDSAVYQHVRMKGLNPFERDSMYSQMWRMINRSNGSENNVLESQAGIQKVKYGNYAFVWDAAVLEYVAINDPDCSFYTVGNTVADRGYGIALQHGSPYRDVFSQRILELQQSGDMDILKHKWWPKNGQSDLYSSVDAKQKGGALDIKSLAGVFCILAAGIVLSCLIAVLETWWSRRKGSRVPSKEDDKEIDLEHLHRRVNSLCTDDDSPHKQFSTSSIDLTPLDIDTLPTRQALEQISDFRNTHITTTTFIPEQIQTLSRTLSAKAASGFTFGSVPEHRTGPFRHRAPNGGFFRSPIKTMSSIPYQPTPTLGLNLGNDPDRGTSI
Experiment: Two-electrode voltage-clamp recordings in Xenopus oocytes, GluRδ2^Wt C811S
Format: cell-based
Settings: data not shown

N[C@H](CO)C(=O)O [D-serine]
response to D-serine: Neither the C811S mutation nor the triple P528C+L789C+C811S mutation resulted in measurable responses
